# Where a name gives a salt, the structure may show the parent alone.
# Assays:
# [1] = target: T1, human dopamine receptor type 2, long variant (hD2L) (Homo sapiens (Human), UniProt P14416); test: Functional calcium assay at hD2 recombinant receptor (CHO-Gα16-hD2L cells, FLIPR); format: cell-based; conditions: functional pKi at hD2, dopamine EC80 challenge; for Ki: read-out: D2 fp Ki (converted)
# Procedure: Functional Calcium Assay at hD2 Recombinant Receptor CHO cells stably expressing human dopamine receptor type 2, long variant (hD2L), coupled to Gα16 protein (CHO-Gα16-hD2L) were seeded into black walled clear-base 384-well plates at a density of 8,000 cells per well and grown overnight at 37° C. […] Compounds of invention were dissolved in DMSO and 200-fold diluted with assay buffer plus 0.01% Pluronic F-127. […] The fluorescence before compound addition (baseline) and before and after addition of agonist challenge was monitored.
# [2] = target: T1, human dopamine receptor type 2, long variant (hD2L); test: [3H]-Spiperone binding assay at hD2 recombinant receptor (CHO-Gα16-hD2L membranes)
# Procedure: [^3H]-Spiperone Binding Assay at hD2 Recombinant Receptor CHO cells stably expressing human dopamine receptor type 2, long variant (hD2L), coupled to Gα16 protein (CHO-Gα16-hD2L) were re-suspended in 20 mM HEPES, 2 mM EDTA (pH 7.4), homogenised and centrifuged at 40,000 g (20 min, 4° C.). After re-suspension, homogenization and centrifugation as above, the final pellet was re-suspended in 20 mM HEPES, 100 mM NaCl, 10 mM MgCl2, 1 mM EDTA (pH 7.4) and aliquots were kept at −80° C. [^3H]-Spiperone Binding experiments were performed in 96 deep-well polypropylene plates in 50 mM Tris/HCl, 120 mM NaCl, 5 mM KCl, 5 mM MgCl2 (pH 7.4). […] Displacement was performed in the presence of 0.08 nM [^3H]-Spiperone. The reaction was initiated by the addition of membrane suspension (2 μg of protein for CHO-hD2 membranes) and lasted for 120 min at 23° C. in a final volume of 1000 μl. Non specific binding (NSB) was determined in the presence of 0.1 μM Spiperone. The binding reaction was stopped by rapid filtration through GF/B filterplates pre-soaked in 0.5% polyetylenimmine (PEI) using a Packard cell harvester. After washing with ice-cold 0.9% NaCl, the plate was left to dry before the addition of Microscint 20 (50 μl/well, PerkinElmer). Radioactivity was counted with a TopCount (PerkinElmer). […] Saturation binding experiments were performed similar to the competition binding experiments using a radioligand concentrations ranging from 0.011 to 3.0 nM. […] Is Clozapine selective for the dopamine D4 receptor? […] Real-time analysis of dopamine: antagonist interactions at recombinant human D2long receptor upon modulation of its activation state. Brit. J.
# [3] = target: human dopamine type 3 receptor (hD3) (Homo sapiens (Human), UniProt P35462); test: [3H]-Spiperone binding assay at hD3 recombinant receptor (CHO-hD3 membranes); conditions: pKi only estimated to be accurate to about ±0.3-0.5
# Sequence of human dopamine type 3 receptor (hD3) (P35462 whole entry): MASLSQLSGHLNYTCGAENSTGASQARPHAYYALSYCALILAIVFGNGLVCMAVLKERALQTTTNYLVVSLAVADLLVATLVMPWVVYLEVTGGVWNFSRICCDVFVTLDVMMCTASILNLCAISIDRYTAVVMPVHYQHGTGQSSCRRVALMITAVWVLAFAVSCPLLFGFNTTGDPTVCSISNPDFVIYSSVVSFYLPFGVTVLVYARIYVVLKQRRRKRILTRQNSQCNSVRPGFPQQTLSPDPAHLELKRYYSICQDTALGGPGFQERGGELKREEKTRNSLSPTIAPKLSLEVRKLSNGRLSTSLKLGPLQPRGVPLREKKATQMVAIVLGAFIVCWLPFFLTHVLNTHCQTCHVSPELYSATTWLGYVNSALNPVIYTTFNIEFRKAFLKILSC
# Procedure: [^3H]-Spiperone Binding Assay at hD3 and hD4 recombinant receptors CHO cells transiently transfected with human dopamine type 3 or 4 receptors (CHO-hD3 or CHO-hD4, respectively), were re-suspended in 20 mM HEPES, 2 mM EDTA (pH 7.4), homogenised and centrifuged at 40,000 g (20 min, 4° C.). After re-suspension, homogenization and centrifugation as above, the final pellet was re-suspended in 20 mM HEPES, 100 mM NaCl, 10 mM MgCl2, 1 mM EDTA (pH 7.4) and aliquots were kept at −80° C. [^3H]-Spiperone Binding experiments were performed in 96 deep-well polypropylene plates in 50 mM Tris/HCl, 120 mM NaCl, 5 mM KCl, 5 mM MgCl2 (pH 7.4). Compounds of invention were serially diluted in DMSO at 100 fold final concentrations in the assay (1% DMSO final in the assay). Displacement was performed in the presence of 0.3 nM [^3H]-Spiperone. The reaction was initiated by the addition of membrane suspension (4 μg and 12 μg of protein for CHO-hD3- and CHO-hD4 membranes, respectively) and lasted for 90 or 100 min (for hD3 or hD4 membranes, respectively) at 23° C. in a final volume of 500 μl. Non specific binding (NSB) was determined in the presence of 1 μM Spiperone. The binding reaction was stopped by rapid filtration through GF/B filterplates pre-soaked in 0.5% polyetylenimmine (PEI) using a Packard cell harvester. After washing with ice-cold 0.9% NaCl, the plate was left to dry before the addition of Microscint 20 ([…], PerkinElmer). Radioactivity was counted with a TopCount (PerkinElmer). Data were analysed by non-linear regression analysis using GraphPad Prism 5.0 (GraphPad Software). Saturation binding experiments were performed similar to the competition binding experiments using a radioligand concentrations ranging from 0.015 to 4.0 nM. […] Characterization of the human dopamine D3 receptor expressed in transfected cell lines.
Structure (SMILES),Ki [1],D2 p Ki [2],D3 p Ki [3],Ki ([2]; read-out: D2 p Ki (converted)),D2 fp Ki [1]
"Cc1ncoc1-c1nnc(SCCCN2CCO[C@H](c3ccc(C(F)(F)F)cc3)C2)n1C (single isomer, unassigned) [Example 10, (2R or 2S)-4-(3-({[4-methyl-5-(4-methyl-1,3-oxazol-5-yl)-4H-1,2,4-triazol-3-yl]sulfanyl}propyl)-2-[4-(trifluoromethyl)phenyl]morpholine hydrochloride]",> 10 µM,,,11.7 µM,
Cc1ncoc1-c1nnc(SCCCN2CCOC(c3ccc(F)cc3)C2)n1C (stereo not shown) [Example 1],> 10 µM,,6.37,,
"Cc1ncoc1-c1nnc(SCCCCN2CCOC(c3ccc(C(F)(F)F)cc3)C2)n1C (stereo not shown) [Example 4, 4-(4-{[4-methyl-5-(4-methyl-1,3-oxazol-5-yl)-4H-1,2,4-triazol-3-yl]sulfanyl}butyl)-2-[4-(trifluoromethyl)phenyl]morpholine]",> 10 µM,,7.05,,
"Cc1ncoc1-c1nnc(SCCCN2CCO[C@H](c3ccc(C(F)(F)F)cc3)C2)n1C (single isomer, unassigned) [Example 9, (2R or 2S)-4-(3-{[4-methyl-5-(4-methyl-1,3-oxazol-5-yl)-4H-1,2,4-triazol-3-yl]sulfanyl)}propyl)-2-[4-(trifluoromethyl)phenyl]morpholine]",,5.36,,,5.64
"Cc1ncoc1-c1nnc(SCCCN2CCOC(c3ccc(F)cc3)C2)n1C (single isomer, unassigned) [Example 3, (2R or 2S)-2-(4-fluorophenyl)-4-(3-({[4-methyl-5-(4-methyl-1,3-oxazol-5-yl)-4H-1,2,4-triazol-3-yl]sulfanyl}propyl)morpholine]",,,6.56,,<5
"Cc1ncoc1-c1nnc(SCCCCN2CCO[C@H](c3ccc(C(F)(F)F)cc3)C2)n1C (single isomer, unassigned) [Example 6, (2R or 2S)-4-(4-{[4-methyl-5-(4-methyl-1,3-oxazol-5-yl)-4H-1,2,4-triazol-3-yl]sulfanyl}butyl)-2-[4-(trifluoromethyl)phenyl]morpholine]",,,7.11,,<5

# Further lines, with some results ahead:
Ki [1],D2 p Ki [2],D3 p Ki [3],Structure (SMILES),Ki ([2]; read-out: D2 p Ki (converted)),D2 fp Ki [1]
31.6 µM,4.50,7.07,"Cc1ccc(C2CN(CCCSc3nnc(-c4ccc(-c5noc(C)n5)cc4)n3C)CCO2)cc1 (stereo not shown) [Example 37, 4-[3-({4-methyl-5-[4-(5-methyl-1,2,4-oxadiazol-3-yl)phenyl]-4H-1,2,4-triazol-3-yl}sulfanyl)propyl]-2-(4-methylphenyl)morpholine]",,
,4.79,7,"Cn1c(SCCCN2CCOC(c3ccc(C(F)(F)F)cc3)C2)nnc1-c1ccc(C(N)=O)cn1 (stereo not shown) [Example 22, 6-{4-methyl-5-[(3-{2-[4-(trifluoromethyl)phenyl]morpholin-4-yl}propyl)sulfanyl]-4H-1,2,4-triazol-3-yl}pyridine-3-carboxamide]",,
,5.06,6.95,Cn1c(SCCCN2CCOC(c3ccc(C(F)(F)F)cc3)C2)nnc1-c1ccsc1 (stereo not shown) [Example 28],,

# — patent US10577361B2, “Dopamine D3 receptor antagonists having a morpholine moiety” (Indivior UK Limited, priority 2015, dated 2020)
